The values that follow come from patent publication US9795140B2, “Molecules having pesticidal utility, and intermediates, compositions, and processes, related thereto” (priority 2015, dated 2017).

SMILES strings stand for the structures.

Type in all cases: in vivo
In data set [1] the test system is Beet Armyworm (Spodoptera exigua, LAPHEG). Briefly: Bioassay on Beet Armyworm (BAW), 128-well diet tray assay. As to conditions: 168 h, 50 μg/cm^2 on artificial diet, second instar larvae, 25° C., five to seven days, average of eight wells, read-out: BAW % Control (or Mortality) rating. As to the method:
(§1) Certain molecules disclosed in this document were tested against BAW and CL using procedures described in the following examples. In the reporting of the results, the “BAW & CL Rating Table” was used (See Table Section).
Bioassays on BAW were conducted using a 128-well diet tray assay. One to five second instar BAW larvae were placed in each well (3 mL) of the diet tray that had been previously filled with approximately 1.5 mL of artificial diet to which 50 μg/cm^2 of the test molecule (dissolved in 50 μL of 90:10 acetone-water mixture) had been applied (to each of eight wells) and then allowed to dry. Trays were covered with a clear self-adhesive cover, vented to allow gas exchange, and held at 25° C., 14:10 light-dark for five to seven days. Percent mortality was recorded for the larvae in each well; activity in the eight wells was then averaged. The results are indicated in the table entitled “Table ABC: Biological Results” (See Table Section).

In data set [2] the test system is Cabbage Looper (Trichoplusia ni, TRIPNI). Briefly: Bioassay on Cabbage Looper (CL), 128-well diet tray assay. As to conditions: 168 h, 50 μg/cm^2 on artificial diet, second instar larvae, 25° C., five to seven days, average of eight wells, read-out: CL % Control (or Mortality) rating. On the procedure: as §1
Bioassays on CL were conducted using a 128-well diet tray assay, one to five second instar CL larvae were placed in each well (3 mL) of the diet tray that had been previously filled with 1 mL of artificial diet to which 50 μg/cm^2 of the test molecule (dissolved in 50 μL of 90:10 acetone-water mixture) had been applied (to each of eight wells) and then allowed to dry. Trays were covered with a clear self-adhesive cover, vented to allow gas exchange, and held at 25° C., 14:10 light-dark for five to seven days. Percent mortality was recorded for the larvae in each well; activity in the eight wells was then averaged. The results are indicated in the table entitled “Table ABC: Biological Results” (See Table Section).

Data set [3] relates to Yellow Fever Mosquito (Aedes aegypti, AEDSAE). Briefly: Bioassay on Yellow Fever Mosquito (YFM) larvae, 96-well plate. As to conditions: about 1 day-old larvae, room temperature, 3 days, scored on mortality. On the procedure:
Certain molecules disclosed in this document were tested against YFM using procedures described in the following paragraph. In the reporting of the results, the “GPA & YFM Rating Table” was used (See Table Section).
Master plates containing 400 μg of a molecule dissolved in 100 μL of dimethyl sulfoxide (DMSO) (equivalent to a 4000 ppm solution) are used. A master plate of assembled molecules contains 15 μL per well. To this plate, 135 μL of a 90:10 water/acetone mixture is added to each well. A robot is programmed to dispense 15 μL aspirations from the master plate into an empty 96-well shallow plate (“daughter” plate). There are 6 reps (“daughter” plates) created per master. The created “daughter” plates are then immediately infested with YFM larvae.
The day before plates are to be treated, mosquito eggs are placed in Millipore water containing liver powder to begin hatching (4 g. into 400 mL). After the “daughter” plates are created using the robot, they are infested with 220 μL of the liver powder/larval mosquito mixture (about 1 day-old larvae). After plates are infested with mosquito larvae, a non-evaporative lid is used to cover the plate to reduce drying. Plates are held at room temperature for 3 days prior to grading. After 3 days, each well is observed and scored based on mortality. The results are indicated in the table entitled “Table ABC: Biological Results” (See Table Section).

On to `O=C(NCCN1CCNC1=O)c1cc(NC(=O)[C@H]2[C@H](c3cc(Cl)cc(Cl)c3)C2(Cl)Cl)ccc1Cl` (relative stereo) [F79, trans-2-Chloro-5-(2,2-dichloro-3-(3,5-dichlorophenyl)cyclopropane-1-carboxamido)-N-(2-(2-oxoimidazolidin-1-yl)ethyl)benzamide], for which the mortality at 50 µg/cm2 in data set [1] and in data set [2] was 50 to 100% in each case. In addition, the “YFM % Control (or Mortality) rating” value in data set [3] is “A (80-100)”.
In the case of `CCCNC(=O)c1cc(NC(=O)[C@H]2[C@H](c3cc(Cl)c(OC)c(Cl)c3)C2(Cl)Cl)ccc1Cl` (relative stereo) [F84, trans-2-Chloro-5-(2,2-dichloro-3-(3,5-dichloro-4-methoxyphenyl)cyclopropane-1-carboxamido)-N-propylbenzamide], the mortality at 50 µg/cm2 in data set [1] and in data set [2] was 50 to 100% in each case. Also, in data set [3], the “YFM % Control (or Mortality) rating” value is given as “D (No activity noticed in this bioassay)”.
As to `CCNC(=O)c1cc(NC(=O)[C@H]2[C@H](c3cc(Cl)c(OC)c(Cl)c3)C2(Cl)Cl)ccc1Cl` (relative stereo) [F85, trans-2-Chloro-5-(2,2-dichloro-3-(3,5-dichloro-4-methoxyphenyl)cyclopropane-1-carboxamido)-N-ethylbenzamide], the mortality at 50 µg/cm2 in data set [1] and in data set [2] was 50 to 100% each time. Besides, the “YFM % Control (or Mortality) rating” value in data set [3] is listed as “B (More than 0-Less than 80)”.
Turning to `COc1c(Cl)cc([C@H]2[C@H](C(=O)Nc3ccc(Cl)c(C(=O)NCCF)c3)C2(Cl)Cl)cc1Cl` (relative stereo) [F86, trans-2-Chloro-5-(2,2-dichloro-3-(3,5-dichloro-4-methoxyphenyl)cyclopropane-1-carboxamido)-N-(2-fluoroethyl)benzamide], the mortality at 50 µg/cm2 in data set [1] and in data set [2] was 50 to 100% each time. In addition, the “YFM % Control (or Mortality) rating” value in data set [3] is on record as “B (More than 0-Less than 80)”.
For the molecule `COc1c(Cl)cc([C@H]2[C@H](C(=O)Nc3ccc(Cl)c(C(=O)NCC(F)(F)F)c3)C2(Cl)Cl)cc1Cl` (relative stereo) [F87, trans-2-Chloro-5-(2,2-dichloro-3-(3,5-dichloro-4-methoxyphenyl)cyclopropane-1-carboxamido)-N-(2,2,2-trifluoroethyl)benzamide], the mortality at 50 µg/cm2 in data set [1] and in data set [2] was 50 to 100% each time. The “YFM % Control (or Mortality) rating” value in data set [3] is “B (More than 0-Less than 80)”.
`COc1c(Cl)cc([C@H]2[C@H](C(=O)Nc3ccc(Cl)c(C(=O)NCCC(F)(F)F)c3)C2(Cl)Cl)cc1Cl` (relative stereo) [F88, trans-2-Chloro-5-(2,2-dichloro-3-(3,5-dichloro-4-methoxyphenyl)cyclopropane-1-carboxamido)-N-(3,3,3-trifluoropropyl)benzamide]: the mortality at 50 µg/cm2 in data set [1] and in data set [2] was 50 to 100% in each case. In addition, the “YFM % Control (or Mortality) rating” value in data set [3] was “B (More than 0-Less than 80)”.
As for `CCNC(=O)c1cc(NC(=O)[C@H]2[C@H](c3cc(Cl)cc(Cl)c3)C2(Cl)Cl)cc(Cl)c1Cl` (relative stereo) [F91, trans-2,3-Dichloro-5-(2,2-dichloro-3-(3,5-dichlorophenyl)cyclopropane-1-carboxamido)-N-ethylbenzamide], the mortality at 50 µg/cm2 in data set [1] and in data set [2] was 50 to 100% each time. Besides, the “YFM % Control (or Mortality) rating” value in data set [3] was “A (80-100)”.
`O=C(NCCF)c1cc(NC(=O)[C@H]2[C@H](c3cc(Cl)cc(Cl)c3)C2(Cl)Cl)cc(Cl)c1Cl` (relative stereo) [F92, trans-2,3-Dichloro-5-(2,2-dichloro-3-(3,5-dichlorophenyl)cyclopropane-1-carboxamido)-N-(2-fluoroethyl)benzamide]: the mortality at 50 µg/cm2 in data set [1] and in data set [2] was 50 to 100% each time. Also, in data set [3], the “YFM % Control (or Mortality) rating” value is recorded as “A (80-100)”.
On to `O=C(NCCC(F)(F)F)c1cc(NC(=O)[C@H]2[C@H](c3cc(Cl)cc(Cl)c3)C2(Cl)Cl)cc(Cl)c1Cl` (relative stereo) [F94, trans-2,3-Dichloro-5-(2,2-dichloro-3-(3,5-dichlorophenyl)cyclopropane-1-carboxamido)-N-(3,3,3-trifluoropropyl)benzamide], for which the mortality at 50 µg/cm2 in data set [1] and in data set [2] was 50 to 100% in each case. For the same molecule, in data set [3], the “YFM % Control (or Mortality) rating” value is on record as “A (80-100)”.
With `CCCNC(=O)c1cc(NC(=O)[C@H]2[C@H](c3cc(Cl)cc(Cl)c3)C2(Cl)Cl)cc(Cl)c1Cl` (relative stereo) [F95, trans-2,3-Dichloro-5-(2,2-dichloro-3-(3,5-dichlorophenyl)cyclopropane-1-carboxamido)-N-propylbenzamide], the mortality at 50 µg/cm2 in data set [1] and in data set [2] was 50 to 100% throughout. For the same molecule, the “YFM % Control (or Mortality) rating” value in data set [3] is “A (80-100)”.
For the molecule `CC(NC(=O)c1cc(NC(=O)[C@H]2[C@H](c3cc(Cl)cc(Cl)c3)C2(Cl)Cl)ccc1Cl)c1ccc(F)cc1` (relative stereo) [F96, 2-chloro-5-(trans-2,2-dichloro-3-(3,5-dichlorophenyl)cyclopropane-1-carboxamido)-N-(1-(4-fluorophenyl)ethyl)benzamide], the mortality at 50 µg/cm2 in data set [1] and in data set [2] was 50 to 100% each time. Also, the “YFM % Control (or Mortality) rating” value in data set [3] is “A (80-100)”.
Turning to `CC(C)(NC(=O)c1cc(NC(=O)[C@H]2[C@H](c3cc(Cl)cc(Cl)c3)C2(Cl)Cl)ccc1Cl)c1ccc(F)cc1` (relative stereo) [F97, 2-Chloro-5-(trans-2,2-dichloro-3-(3,5-dichlorophenyl)cyclopropane-1-carboxamido)-N-(2-(4-fluorophenyl)propan-2-yl)benzamide], the mortality at 50 µg/cm2 in data set [1] and in data set [2] was 50 to 100% throughout. The “YFM % Control (or Mortality) rating” value in data set [3] is “A (80-100)”.
For the molecule `CCNC(=O)c1cc(NC(=O)[C@H]2[C@H](c3cc(Cl)cc(Cl)c3)C2(Cl)Cl)c(Cl)cc1Cl` (relative stereo) [F98, trans-2,4-Dichloro-5-(2,2-dichloro-3-(3,5-dichlorophenyl)cyclopropane-1-carboxamido)-N-ethylbenzamide], the values for the mortality at 50 µg/cm2 in data set [1] and in data set [2] were 0 to 50% and 0%, respectively. In addition, the “YFM % Control (or Mortality) rating” value in data set [3] is reported as “A (80-100)”.
For `O=C(NCCF)c1cc(NC(=O)[C@H]2[C@H](c3cc(Cl)cc(Cl)c3)C2(Cl)Cl)c(Cl)cc1Cl` (relative stereo) [F99, trans-2,4-Dichloro-5-(2,2-dichloro-3-(3,5-dichlorophenyl)cyclopropane-1-carboxamido)-N-(2-fluoroethyl)benzamide], in that order: 50 to 100%, 50 to 100% and “A (80-100)”.
For `O=C(NCC(F)(F)F)c1cc(NC(=O)[C@H]2[C@H](c3cc(Cl)cc(Cl)c3)C2(Cl)Cl)c(Cl)cc1Cl` (relative stereo) [F100, trans-2,4-Dichloro-5-(2,2-dichloro-3-(3,5-dichlorophenyl)cyclopropane-1-carboxamido)-N-(2,2,2-trifluoroethyl)benzamide], in that order: 50 to 100%, 0% and “A (80-100)”.
As for `CCCNC(=O)c1cc(NC(=O)[C@H]2[C@H](c3cc(Cl)cc(Cl)c3)C2(Cl)Cl)c(Cl)cc1Cl` (relative stereo) [F101, trans-2,4-Dichloro-5-(2,2-dichloro-3-(3,5-dichlorophenyl)cyclopropane-1-carboxamido)-N-propylbenzamide], the mortality at 50 µg/cm2 in data set [1] and in data set [2] was 0% each time. In addition, in data set [3], the “YFM % Control (or Mortality) rating” value was “D (No activity noticed in this bioassay)”.

For orientation: mortality means the percentage killed.
